Measured values: US12479878B2, “Crystallization of 2′-FL” (Glycom A/S, priority 2020, dated 2025)

Tests used:
Assay type in all cases: physicochemical
[1] = Residual AcOH content (Megazyme K-ACETRM 07/12); details: dried crystals
Experimental: (§1) The water content of dried crystal powder was measured by Karl-Fischer titration. Residual AcOH content was measured using Megazyme K-ACETRM 07/12.

[2] = Water content of dried crystal powder by Karl-Fischer titration; details: dried crystals
Experimental: as §1

[3] = Pressure filtration of crystallization slurry (overall filtration rate); details: for filtration rate: 75 ml slurry pressure filtered at ΔP=1 bar, polypropylene filter cloth pore size about 3 μm, filtration area 13 cm^2, filtrate volume/(time·filter area); for filterability improvement relative to prior art: relative to WO 2016/095924 example 2 slurry
Experimental: A sample of the crystallization slurry (75 ml) after completing the crystallization from examples 1-3 above, respectively, and from the prior art (according to WO 2016/095924 example 2, with the difference that the procedure was conducted at 35° C. instead of room temperature and the concentrated syrup was of 62° Bx (140.2 g; containing 48.8 wt % of 2′-FL, 1.3 wt % of lactose and 5.4 wt % of DFL)) was collected and pressure filtered at ΔP=1 bar using a polypropylene filter cloth with a pore size of about 3 μm and a filtration area of 13 cm^2, and the time until the beginning of the liquid-gas mass transfer was measured. The filterability of the slurries was compared by calculating an overall filtration rate according to the following equation: filtrate volume [cm^3]/(time [sec]·filter area [cm^2]).

[4] = Loss on drying of wet filter cake; details: for LoD relative to prior art: relative to WO 2016/095924 example 2 filter cake
Experimental: A sample of the slurry (75 ml) was collected and pressure filtered at 1 bar. Another sample of the slurry (75 ml) was collected, pressure filtered at 1 bar and the filter cake was washed with acetic acid (28 g). The washed and the unwashed solid wet filter cakes were dried overnight at 65° C. and 50 mbar generating loss on drying (LoD) of 17.3% and 23.2 respectively. The concentrations of 2′-FL and other impurities in the mother liquor as well as dried solids were assayed via HPLC. The unwashed dried crystalline material contained 95.3% of 2′-FL and yielded 81.5% of crystalline 2′-FL polymorph II, while the purity of the washed filter cake increased to 97.0%.
Then the filtration was continued for 60 sec. The so-obtained solid wet filter cake was dried overnight (14 hours) at 65° C. and 50 mbar, and loss of drying was determined (see data in the table below).

[5] = filter cake washed with acetic acid, dried overnight at 65° C. and 50 mbar
[6] = unwashed solid wet filter cake dried overnight (14 hours) at 65° C. and 50 mbar

Row | SMILES | AcOH content [1] [wt %] | H2O content [2] [wt %] | filtration rate [3] [cm/s] | filterability improvement relative to prior art [3] [x] | LoD (loss on drying) [4, 5] [%] | LoD relative to prior art [4] | LoD (loss on drying) [4, 6] [%]
1 | C[C@@H]1OC(O[C@H]2[C@H](O[C@H]3[C@H](O)[C@@H](O)C(O)O[C@@H]3CO)O[C@H](CO)[C@H](O)[C@@H]2O)[C@@H](O)[C@H](O)[C@@H]1O (single isomer, unassigned) [Example 4, 2′-O-fucosyllactose] | – | – | – | – | – | – | 48.5
2 | C[C@@H]1OC(O[C@H]2[C@H](O[C@H]3[C@H](O)[C@@H](O)C(O)O[C@@H]3CO)O[C@H](CO)[C@H](O)[C@@H]2O)[C@@H](O)[C@H](O)[C@@H]1O (single isomer, unassigned) [Example 3, 2′-O-fucosyllactose] | 0.11 | – | 0.16 | 2.57 | 16.1 | 0.42-fold fold lower | 22.5

More lines, now with the values ahead:

Row | AcOH content [1] [wt %] | H2O content [2] [wt %] | filtration rate [3] [cm/s] | filterability improvement relative to prior art [3] [x] | LoD (loss on drying) [4, 5] [%] | LoD relative to prior art [4] | LoD (loss on drying) [4, 6] [%] | SMILES
3 | 0.15 | 0.06 | 0.39 | 6.12 | 17.3 | 0.44-fold fold lower | 23.2 | C[C@@H]1OC(O[C@H]2[C@H](O[C@H]3[C@H](O)[C@@H](O)C(O)O[C@@H]3CO)O[C@H](CO)[C@H](O)[C@@H]2O)[C@@H](O)[C@H](O)[C@@H]1O (single isomer, unassigned) [Example 1, 2′-O-fucosyllactose]
4 | 0.36 | 0.05 | 0.62 | 9.78 | – | 0.46-fold fold lower | 24.7 | C[C@@H]1OC(O[C@H]2[C@H](O[C@H]3[C@H](O)[C@@H](O)C(O)O[C@@H]3CO)O[C@H](CO)[C@H](O)[C@@H]2O)[C@@H](O)[C@H](O)[C@@H]1O (single isomer, unassigned) [Example 2, 2′-O-fucosyllactose]
5 | 0.58 | 0.63 | 0.064 | – | – | – | 52.9 | C[C@@H]1OC(O[C@H]2[C@H](O[C@H]3[C@H](O)[C@@H](O)C(O)O[C@@H]3CO)O[C@H](CO)[C@H](O)[C@@H]2O)[C@@H](O)[C@H](O)[C@@H]1O (stereo partly drawn) [WO 2016/095924, 2′-O-fucosyllactose, reference compound]
